Test results published in patent publication US7507748B2, “Substituted aryl-amine derivatives and methods of use” (Amgen Inc., priority 2004, dated 2009).

test system: Human Umbilical Vein Endothelial cells; assay: VEGF-stimulated HUVEC proliferation assay; format: cell-based; details: 72 h, CyQuant, read-out: inhibited VEGF-stimulated HUVEC proliferation at a level
Procedure: Human Umbilical Vein Endothelial cells are purchased from Clonetics, Inc., as cryopreserved cells harvested from a pool of donors. These cells, at passage 1, are thawed and expanded in EBM-2 complete medium, until passage 2 or 3. The cells are trypsinized, washed in DMEM+10% FBS+antibiotics, and spun at 1000 rpm for 10 min. Prior to centrifugation of the cells, a small amount is collected for a cell count. After centrifugation, the medium is discarded, and the cells are resuspended in the appropriate volume of DMEM+10% FBS+antibiotics to achieve a concentration of 3×10^5 cells/mL. Another cell count is performed to confirm the cell concentration. The cells are diluted to 3×10^4 cells/mL in DMEM+10% FBS+antibiotics, and 100 μL of cells are added to a 96-well plate. The cells are incubated at 37° C. for 22 h.
Prior to the completion of the incubation period, compound dilutions are prepared. Five-point, five-fold serial dilutions are prepared in DMSO, at concentrations 400-fold greater than the final concentrations desired. 2.5 μL of each compound dilution are diluted further in a total of 1 mL DMEM+10% FBS+antibiotics (400× dilution). Medium containing 0.25% DMSO is also prepared for the 0 μM compound sample. At the 22-hour timepoint, the medium is removed from the cells, and 100 μL of each compound dilution is added. The cells are incubated at 37° C. for 2-3 h.
During the compound pre-incubation period, the growth factors are diluted to the appropriate concentrations. Solutions of DMEM+10% FBS+antibiotics, containing either VEGF or bFGF at the following concentrations: 50, 10, 2, 0.4, 0.08, and 0 ng/mL are prepared. For the compound-treated cells, solutions of VEGF at 550 ng/mL or bFGF at 220 ng/mL for 50 ng/mL or 20 ng/mL final concentrations, respectively, are prepared since 10 μL of each will be added to the cells (110 μL final volume). At the appropriate time after adding the compounds, the growth factors are added. VEGF is added to one set of plates, while bFGF is added to another set of plates. For the growth factor control curves, the media on wells B4-G6 of plates 1 and 2 are replaced with media containing VEGF or bFGF at the varying concentrations (50-0 ng/mL). The cells are incubated at 37° C. for an additional 72 h.
At the completion of the 72 h incubation period, the medium is removed, and the cells are washed twice with PBS. After the second wash with PBS, the plates are tapped gently to remove excess PBS, and the cells are placed at −70° C. for at least 30 min. The cells are thawed and analyzed using the CyQuant fluorescent dye (Molecular Probes C-7026), following the manufacturer's recommendations. The plates are read on a Victor/Wallac 1420 workstation at 485 nm/530 nm (excitation/emission). Raw data are collected and analyzed using a 4-parameter fit equation in XLFit. IC50 values are then determined.

**Q.** With `CC1(C)CC(=O)Nc2nc(NC(=O)c3cccnc3Nc3ccc4ccncc4c3)ccc21` [Example 58, N-(5,5-dimethyl-7-oxo-5,6,7,8-tetrahydro-1,8-naphthyridin-2-yl)-2-(isoquinolin-7-ylamino)nicotinamide] as the molecule, how does the IC50 read?
**A.** < 1 µM

**Q.** `CC1(C)CN(C(=O)CN)Cc2cc(NC(=O)c3cccnc3Nc3ccc4ccncc4c3)ccc21` [Example 75, N-[2-(2-Amino-acetyl)-4,4-dimethyl-1,2,3,4-tetrahydro-isoquinolin-7-yl]-2-(isoquinolin-7-ylamino)-nicotinamide] was tested. Which IC50 did it give?
**A.** < 1 µM

**Q.** How did the IC50 turn out when `CCOC(=O)C(C)c1ccc(NC(=O)c2cccnc2Nc2ccc3ccncc3c2)cc1` (racemic) [Example 52, 2(R,S)-(4-{[2-(Isoquinolin-7-ylamino)-pyridine-3-carbonyl]-amino}-phenyl)-propionic acid ethyl ester] was run?
**A.** < 1 µM

**Q.** Which IC50 does the source give for `CC(C)(C)c1ccc(NC(=O)c2ccccc2Nc2ccc3ccncc3n2)cc1` [Example 76, N-(4-tert-Butyl-phenyl)-2-([1,7]naphthyridin-2-ylamino)-benzamide] here?
**A.** < 1 µM

**Q.** With `CC(C)(C)c1ccc(NC(=O)c2ccccc2Nc2ccc3ccncc3c2)cc1` [Example 27, N-(4-tert-Butyl-phenyl)-2-(isoquinolin-7-ylamino)-benzamide] as the molecule, how does the IC50 read?
**A.** < 1 µM

**Q.** How did the IC50 turn out when `CC(C)(C)c1ccc(NC(=O)c2cccnc2Nc2ccc3ncncc3c2)cc1` [Example 56, N-(4-tert-Butyl-phenyl)-2-(quinazolin-6-ylamino)-nicotinamide] was run?
**A.** < 1 µM

**Q.** `CC1(C)CC(=O)Nc2cc(NC(=O)c3cccnc3Nc3ccc4[nH]nnc4c3)ccc21` [Example 24, 2-(1H-1,2,3-benzotriazol-5-ylamino)-N-(4,4-dimethyl-2-oxo-1,2,3,4-tetrahydroquinolin-7-yl)nicotinamide] was tested. Which IC50 did it give?
**A.** < 1 µM

**Q.** `CC1(C)CNCc2cc(NC(=O)c3cccnc3Nc3cnc4ccncc4c3)ccc21` [Example 37, N-(4,4-Dimethyl-1,2,3,4-tetrahydro-isoquinolin-7-yl)-2-([1,6]naphthyridin-3-ylamino)-nicotinamide] was tested. Which IC50 did it give?
**A.** < 1 µM

**Q.** With `CC1(C)CCNc2cc(NC(=O)c3ccccc3Nc3ccc4ccncc4c3)ccc21` [Example 28, N-(4,4-Dimethyl-1,2,3,4-tetrahydro-quinolin-7-yl)-2-(isoquinolin-7-ylamino)-benzamide] as the molecule, how does the IC50 read?
**A.** < 1 µM

**Q.** How did the IC50 turn out when `Cc1nc2cc(NC(=O)c3cccnc3Nc3ccc4ccncc4c3)ccc2s1` [Example 39, 2-(isoquinolin-7-ylamino)-N-(2-methyl-1,3-benzothiazol-5-yl)nicotinamide] was run?
**A.** < 1 µM

**Q.** With `O=C(Nc1ccc(C(O)(C(F)(F)F)C(F)(F)F)cc1)c1cccnc1Nc1cnc2ccncc2c1` [Example 38, 2-([1,6]Naphthyridin-3-ylamino)-N-[4-(2,2,2-trifluoro-1-hydroxy-1-trifluoromethyl-ethyl)-phenyl]-nicotinamide] as the molecule, how does the IC50 read?
**A.** < 1 µM

**Q.** How did the IC50 turn out when `CC(C)(C)c1cc(NC(=O)c2cccnc2Nc2ccc3ncncc3c2)on1` [Example 50, N-(3-tert-Butyl-isoxazol-5-yl)-2-(quinazolin-6-ylamino)-nicotinamide] was run?
**A.** < 1 µM

**Q.** How did the IC50 turn out when `O=C(Nc1ccc(Cl)c(C(F)(F)F)c1)c1cccnc1Nc1ccc2ccncc2c1` [Example 34, N-(4-Chloro-3-trifluoromethyl-phenyl)-2-(isoquinolin-7-ylamino)-nicotinamide] was run?
**A.** < 1 µM

**Q.** How did the IC50 turn out when `CC(C)(C)c1ccc(NC(=O)c2cccnc2Nc2ccc3ccncc3c2)cc1` [Example 14, N-(4-tert-Butyl-phenyl)-2-(isoquinolin-7-ylamino)-nicotinamide] was run?
**A.** < 1 µM

**Q.** How did the IC50 turn out when `CC(C)(C)c1ccc(NC(=O)c2cccnc2Nc2ccc3ccncc3c2)cn1` [Example 42, N-(6-tert-Butyl-pyridin-3-yl)-2-(isoquinolin-7-ylamino)-nicotinamide] was run?
**A.** < 1 µM

**Q.** `CC1(C)CNCc2cc(NC(=O)c3cccnc3Nc3cccc4cnccc34)ccc21` [Example 69, N-(4,4-Dimethyl-1,2,3,4-tetrahydro-isoquinolin-7-yl)-2-(isoquinolin-5-ylamino)-nicotinamide] was tested. Which IC50 did it give?
**A.** < 1 µM

**Q.** With `CC(C)(C)c1cc(NC(=O)c2cccnc2Nc2ccc3ccncc3c2)no1` [Example 15, N-(5-tert-Butyl-isoxazol-3-yl)-2-(isoquinolin-7-ylamino)-nicotinamide] as the molecule, how does the IC50 read?
**A.** < 1 µM

**Q.** How did the IC50 turn out when `CC(=O)N1Cc2cc(NC(=O)c3cccnc3Nc3ccc4ccncc4c3)ccc2C(C)(C)C1` [Example 13, N-(2-Acetyl-4,4-dimethyl-1,2,3,4-tetrahydro-isoquinolin-7-yl)-2-(isoquinolin-7-ylamino)-nicotinamide] was run?
**A.** < 1 µM

**Q.** Which IC50 does the source give for `O=C(Nc1ccc(OC(F)(F)F)cc1)c1cccnc1Nc1ccc2ccncc2c1` [Example 61, 2-(isoquinolin-7-ylamino)-N-(4-(trifluoromethoxy)phenyl)nicotinamide] here?
**A.** < 1 µM

**Q.** For `O=C(Nc1ccc(C(O)(C(F)(F)F)C(F)(F)F)cc1)c1cccnc1Nc1ccc2ccncc2c1` [Example 43, 2-(Isoquinolin-7-ylamino)-N-[4-(2,2,2-trifluoro-1-hydroxy-1-trifluoromethyl-ethyl)-phenyl]-nicotinamide], which IC50 is on record?
**A.** < 1 µM

**Q.** Which IC50 does the source give for `CC(C)(C)c1cc(NC(=O)c2cccnc2Nc2ccc3[nH]nnc3c2)no1` [Example 25, 2-(1H-benzo[d][1,2,3]triazol-5-ylamino)-N-(5-tert-butylisoxazol-3-yl)nicotinamide] here?
**A.** < 1 µM

**Q.** `CCC(C)(C)c1ccc(NC(=O)c2cccnc2Nc2ccc3ccncc3c2)cc1` [Example 46, N-(4-(1,1-Dimethyl-propyl)-phenyl)-2-(isoquinolin-7-ylamino)-nicotinamide] was tested. Which IC50 did it give?
**A.** < 1 µM

**Q.** How did the IC50 turn out when `CC(C)(C)c1ccc(NC(=O)c2cccnc2Nc2cccc3cnccc23)cc1` [Example 67, N-(4-tert-Butyl-phenyl)-2-(isoquinolin-5-ylamino)-nicotinamide] was run?
**A.** < 1 µM

**Q.** `CC1(C)CCNc2cc(NC(=O)c3cccnc3Nc3ccc4ncncc4c3)ccc21` [Example 57, N-(4,4-Dimethyl-1,2,3,4-tetrahydro-quinolin-7-yl)-2-(quinazolin-6-ylamino)-nicotinamide] was tested. Which IC50 did it give?
**A.** < 1 µM

**Q.** With `CNc1ncnc2ccc(Nc3ncccc3C(=O)Nc3ccc4c(c3)CN(C(C)=O)CC4(C)C)cc12` [Example 16, N-(2-Acetyl-4,4-dimethyl-1,2,3,4-tetrahydro-isoquinolin-7-yl)-2-(4-methylamino-quinazolin-6-ylamino)-nicotinamide] as the molecule, how does the IC50 read?
**A.** < 1 µM

**Q.** With `CN1CCCC1COc1cc(NC(=O)c2cccnc2Nc2cccc3cnccc23)cc(C(F)(F)F)c1` (centres unmarked) [Example 68, 2-(Isoquinolin-5-ylamino)-N-[3-(1-methyl-pyrrolidin-2-ylmethoxy)-5-trifluoromethyl-phenyl]-nicotinamide] as the molecule, how does the IC50 read?
**A.** < 1 µM

**Q.** Which IC50 does the source give for `Nc1ncc2cc(Nc3ncccc3C(=O)Nc3ccc(Cl)cc3)ccc2n1` [Example 65, 2-(2-aminoquinazolin-6-ylamino)-N-(4-chlorophenyl)nicotinamide] here?
**A.** < 1 µM

**Q.** With `CC(C)(C)c1ccc(NC(=O)c2cccc(F)c2Nc2ccc3ccncc3c2)cc1` [Example 29, N-(4-tert-Butyl-phenyl)-3-fluoro-2-(isoquinolin-7-ylamino)-benzamide] as the molecule, how does the IC50 read?
**A.** < 1 µM

**Q.** `CC1(C)CC(=O)Nc2cc(NC(=O)c3cccnc3Nc3ccc4ccncc4c3)ccc21` [Example 54, N-(4,4-Dimethyl-2-oxo-1,2,3,4-tetrahydro-quinolin-7-yl)-2-(isoquinolin-7-ylamino)-nicotinamide] was tested. Which IC50 did it give?
**A.** < 1 µM
